Experimental data from US20230372232A1, “ORAL CARE COMPOSITION COMPRISING SWEET POTATO-DERIVED POTATO SYRUP OR SUPERNATANT OF POTATO SYRUP” (KARAIMO NOJYO CO., LTD., priority 2020, published 2023).

How the values were obtained:
[1] = system: Streptococcus mutans; test: Tooth plaque formation inhibition, crystal violet A570 (Test Examples 3 and 4); format: cell-based; settings: 1% concentration sucrose (sample 8); BHI medium, 37° C., 48 hours
Experimental: A basic sample (a sample 8) was produced by impregnating 1% concentration sucrose (white sugar) in a BHI medium of twice the normal concentration and adding 0.1 mL of Streptococcus mutans liquid (approximately 1000 bacterial bodies) thereto. Next, another sample (a sample 9) in which the sucrose (white sugar) was not at all impregnated in the basic sample (the sample 8) was produced. There were also individually produced a sample (10) in which 10% of the potato syrup of Example 1-A was added instead of the 1% concentration sucrose (white sugar) to the basic sample (the sample 8), a sample (11) in which 10% of the potato syrup of Example 1-B was added instead of the 1% concentration sucrose (white sugar) to the basic sample (the sample 8), and a sample (12) in which 10% of the potato syrup of Example 1-C was added instead of the 1% concentration sucrose (white sugar) to the basic sample (the sample 8). The respective samples were subject to a culture process at 37° C. for 48 hours. […] Then, the pigment was eluted with 0.2 mL of 99.5% ethanol, and the absorbance (570 nm) was measured. Based on the results, the plaque (tooth plaque) formation inhibition rates (%) were calculated. The results are shown in FIG. 3. plaque formation inhibition rate (%)=[A570(no sucrose added)−A570 (sample added)]/A570(no sucrose added)×100 A570: absorbance of crystal violet eluted with ethanol at 570 nm. […]

[2] = system: Streptococcus mutans; test: Tooth plaque formation inhibition by potato syrup with malt, crystal violet A570 (Test Example 6); format: cell-based; settings: 1% concentration sucrose; BHI medium, 37° C., 48 hours
Experimental: A basic sample was produced by impregnating 1% concentration sucrose (white sugar) in a BHI medium and adding 0.1 mL of Streptococcus mutans liquid (approximately 1000 bacterial bodies) thereto. Next, another additive-free sample in which the sucrose (white sugar) was not at all impregnated in the basic sample was produced. There were also individually produced a sample in which 10% of the potato syrup with malt of Example 3 was added instead of the 1% concentration sucrose (white sugar) to the basic sample and a sample in which 10% of the potato syrup of Example 1-B was added instead of the 1% concentration sucrose (white sugar) to the basic sample. The respective samples were subject to a culture process at 37° C. for 48 hours. Afterwards, the supernatant liquids of the culture fluids were discarded, and then, the respective samples were washed twice with 0.2 mL of distilled water. Afterwards, 0.2 mL each of 0.1% crystal violet were added to each of the samples, a stir staining operation was performed for 20 minutes, and then, the staining fluids were discarded. The residues were washed twice with 0.2 mL of distilled water. Then, the pigment was eluted with 0.2 mL of 99.5% ethanol and the absorbance (570 nm) was measured. Based on the results, the plaque (tooth plaque) formation inhibition rates (%) were calculated.

OC[C@H]1O[C@@](CO)(O[C@H]2O[C@H](CO)[C@@H](O)[C@H](O)[C@H]2O)[C@@H](O)[C@@H]1O [sucrose]
plaque (tooth plaque) formation [1]: the plaque (tooth plaque) rapidly grew | plaque (tooth plaque) formation [2]: the plaque (tooth plaque) rapidly grew
